Among the data in patent publication US7109186B2 (Bristol-Myers Squibb Company, priority 2002, dated 2006) are inhibition values, retold here.

The test concerns the target T1, HIV-integrase (Human immunodeficiency virus type 1 group M subtype B, UniProt P04585).
T1 construct: 0.26 ng of recombinant integrase was incubated with the beads for 90 min at 37 C
Description: HIV integrase SPA integration assay (biotin-labeled substrate DNA on streptavidin SPA beads, P33-labeled target DNA). The following applies: percent inhibition of HIV-integrase in the presence of 20 μM of compound. It is filed as biochemical. The procedure: For each reaction, 5 pmole of biotin labeled substrate DNA was bound to 100 ug of Streptavidin coated PVT SPA beads (Amersham Pharmacia Biotech). 0.26 ng of recombinant integrase was incubated with the beads for 90 min at 37 C. Unbound enzyme was removed by washing the complex followed by addition of inhibitors and 0.1 fmol of P33 labeled target DNA. Reaction was stopped by adding EDTA to a final concentration of 10 mM. Samples were counted in TopCountNXT (Packard) and the CPM was used as a measure of integration. Reaction condition was as described in A. Engelman and R. Craigie, J. Virol. 69, 5908–5911 (1995). The sequences of substrate and target DNA were described in Nucleic Acid Research 22, 1121–1122 (1994).

The term inhibition denotes the share of the control response that was lost under treatment. Take `CC(=O)NCCN1CC(C(=O)N(C)Cc2ccc(Cl)c(Cl)c2)=C(O)C1=O` [Compound 27]: the inhibition at 20 µM worked out at 99.9%.

As to `CN(Cc1ccc(Cl)c(Cl)c1)C(=O)C1=C(O)C(=O)N(CCCCCCC(=O)O)C1` [Compound 28, 7-{4-[(3,4-dichloro-benzyl)-methyl-carbamoyl]-3-hydroxy-2-oxo-2,5-dihydro-pyrrol-1-yl}-heptanoic acid], the inhibition at 20 µM stood at 99.9%.

Take `CN(Cc1ccc(Cl)c(Cl)c1)C(=O)C1=C(O)C(=O)N(CCC(=O)NC(Cc2cncn2C)C(=O)O)C1` (stereo not shown) [Compound 29]: the inhibition at 20 µM turned out to be 99.9%.

In the case of `CN(Cc1ccc(Cl)c(Cl)c1)C(=O)C1=C(O)C(=O)N(CCCn2ccnc2)C1` [Compound 30, 4-Hydroxy-1-(3-imidazol-1-yl-propyl)-5-oxo-2,5-dihydro-1H-pyrrole-3-carboxylic acid (3,4-dichloro-benzyl)-methyl-amide], the inhibition at 20 µM was 99.9%.

In the case of `CN(Cc1ccc(Cl)c(Cl)c1)C(=O)C1=C(O)C(=O)N(Cc2cccs2)C1` [Compound 31], the inhibition at 20 µM came out at 99.9%.

For `CN1CCN(CCN2CC(C(=O)N(C)Cc3ccc(Cl)c(Cl)c3)=C(O)C2=O)CC1` [Compound 32, 4-Hydroxy-1-[2-(4-methyl-piperazin-1-yl)-ethyl]-5-oxo-2,5-dihydro-1H-pyrrole-3-carboxylic acid (3,4-dichloro-benzyl)-methyl-amide], the inhibition at 20 µM worked out at 99.9%.

For `COC(=O)CCCN1CC(C(=O)N(C)Cc2ccc(Cl)c(Cl)c2)=C(O)C1=O` [Compound 33], the inhibition at 20 µM stood at 99.9%.

`COC(=O)CCN1CC(C(=O)N(C)Cc2ccc(Cl)c(Cl)c2)=C(O)C1=O` [Compound 34, 3-{4-[(3,4-Dichloro-benzyl)-methyl-carbamoyl]-3-hydroxy-2-oxo-2,5-dihydro-pyrrol-1-yl}-propionic acid methyl ester]: the inhibition at 20 µM was found to be 99.9%.

As to `CN(Cc1ccc(Cl)c(Cl)c1)C(=O)C1=C(O)C(=O)N(CC(=O)NCC(=O)NCCC(=O)NCC(=O)O)C1` [Compound 35, {3-[2-(2-{4-[(3,4-Dichloro-benzyl)-methyl-carbamoyl]-3-hydroxy-2-oxo-2,5-dihydro-pyrrol-1-yl}-acetylamino)-acetylamino]-propionylamino}-acetic acid], the inhibition at 20 µM was found to be 99.9%.

Take `CN(Cc1ccc(Cl)c(Cl)c1)C(=O)C1=C(O)C(=O)N(Cc2ccc(C(=O)O)cc2)C1` [Compound 36, 4-{4-[(3,4-Dichloro-benzyl)-methyl-carbamoyl]-3-hydroxy-2: oxo-2,5-dihydro-pyrrol-1-ylmethyl}-benzoic acid]: the inhibition at 20 µM is 92%.

With `CN(Cc1ccc(Cl)c(Cl)c1)C(=O)C1=C(O)C(=O)N(CCC(=O)NCCC(=O)O)C1` [Compound 37, 3-(3-{4-[(3,4-Dichloro-benzyl)-methyl-carbamoyl]-3-hydroxy-2oxo-2,5-dihydro-pyrrol-1-yl}-propionylamino)-propionic acid], the inhibition at 20 µM worked out at 99.9%.

As to `CN(Cc1ccc(Cl)c(Cl)c1)C(=O)C1=C(O)C(=O)N(CCNC(=O)CCN2CCOCC2)C1` [Compound 38, 4-Hydroxy-1-[2-(3-morpholin-4-yl-propionylamino)-ethyl]-5-oxo-2,5-dihydro-1H-pyrrole-3-carboxylic acid (3,4-dichloro-benzyl)-methyl-amide], the inhibition at 20 µM is 99.9%.

On to `CN(Cc1ccc(Cl)c(Cl)c1)C(=O)C1=C(O)C(=O)N(CCC(=O)NCC(=O)O)C1` [Compound 39, (3-{4-[(3,4-Dichloro-benzyl)-methyl-carbamoyl]-3-hydroxy-2-oxo-2,5-dihydro-pyrrol-1-yl}-propionylamino)-acetic acid], for which the inhibition at 20 µM worked out at 99.9%.

For `CN(Cc1ccc(Cl)c(Cl)c1)C(=O)C1=C(O)C(=O)N(CCC(N)=O)C1` [Compound 40, 1-(2-Carbamoyl-ethyl)-4-hydroxy-5-oxo-2,5-dihydro-1H-pyrrole-3-carboxylic acid (3,4-dichloro-benzyl)-methyl-amide], the inhibition at 20 µM came out at 99.9%.

For the compound `COC(=O)c1ccc(CN2CC(C(=O)N(C)Cc3ccc(Cl)c(Cl)c3)=C(O)C2=O)cc1` [Compound 41, 4-{4-[(3,4-Dichloro-benzyl)-methyl-carbamoyl]-3-hydroxy-2-oxo-2,5-dihydro-pyrrol-1-ylmethyl}-benzoic acid methyl ester], the inhibition at 20 µM turned out to be 99.9%.

Turning to `CN(Cc1ccc(Cl)c(Cl)c1)C(=O)C1=C(O)C(=O)N(CCC#N)C1` [Compound 42, 1-(2-Cyano-ethyl)-4-hydroxy-5-oxo-2,5-dihydro-1H-pyrrole-3carboxylic acid (3,4-dichloro-benzyl)-methyl-amide], the inhibition at 20 µM stood at 99.9%.

On to `CN(Cc1ccc(Cl)c(Cl)c1)C(=O)C1=C(O)C(=O)N(CCCN2CCOCC2)C1` [Compound 43, 4-Hydroxy-1-(3-morpholin-4-yl-propyl)-5-oxo-2,5-dihydro-1H-pyrrole-3-carboxylic acid (3,4-dichloro-benzyl)-methyl-amide], for which the inhibition at 20 µM stood at 99.9%.

Turning to `CON(Cc1ccc(F)cc1)C(=O)C1=C(O)C(=O)N(CCN2CCOCC2)C1` [Compound 45, 4-Hydroxy-1-(2-morpholino-4-yl-ethyl)-5-oxo-2,5-dihydro-1H-pyrrole-3-carboxylic acid (4-fluoro-benzyl)-methoxy-amide], the inhibition at 20 µM stood at 99.5%.

Consider `CON(Cc1ccc(F)cc1)C(=O)C1=C(O)C(=O)N(CCN2CCNCC2)C1` [Compound 46, 4-Hydroxy-5-oxo-1-(2-piperazin-1-yl-ethyl)-2,5-dihydro-1H-pyrrole-3-carboxylic acid (4-fluoro-benzyl)-methoxy-amide], for which the inhibition at 20 µM was 99.3%.

With `CON(Cc1ccc(F)cc1F)C(=O)C1=C(O)C(=O)N(C)C1` [Compound 60, 4-Hydroxy-1-methyl-5-oxo-2,5-dihydro-1H-pyrrole-3-carboxylic acid (2,4-difluoro-benzyl)-methoxy-amide], the inhibition at 20 µM came to 99.7%.

`CON(Cc1ccc(F)c(C#N)c1)C(=O)C1=C(O)C(=O)N(C)C1` [Compound 61, 4-Hydroxy-1-methyl-5-oxo-2,5-dihydro-1H-pyrrole-3-carboxylic acid (3-cyano-4-fluoro-benzyl)-methoxy-amide]: the inhibition at 20 µM is 99.3%.

As for `CON(Cc1ccccc1OC(C)C)C(=O)C1=C(O)C(=O)N(C)C1` [Compound 66, 4-Hydroxy-1-methyl-5-oxo-2,5-dihydro-1H-pyrrole-3-carboxylic acid (2-isopropoxy)-methoxy-amide], the inhibition at 20 µM was 99%.

`COC(=O)c1ccc(CN(OC)C(=O)C2=C(O)C(=O)N(C)C2)cc1` [Compound 67, 4-{[(4-Hydroxy-1-methyl-5-oxo-2,5-dihydro-1H-pyrrole-3-carbonyl)-methoxy-amino]-methyl}-benzoic acid methyl ester]: the inhibition at 20 µM turned out to be 96.5%.

As to `CON(Cc1ccc(C(=O)OC(C)(C)C)cc1)C(=O)C1=C(O)C(=O)N(C)C1` [Compound 68-A, 4-{[(4-Hydroxy-1-methyl-5-oxo-2,5-dihydro-1H-pyrrole-3-carbonyl)-methoxy-amino]-methyl}-benzoic acid tert-butyl ester], the inhibition at 20 µM was 4.5%.

Consider `CON(C(=O)C1=C(O)C(=O)N(C)C1)C(c1ccc(F)cc1)c1ccc(F)cc1` [Compound 73, 4-Hydroxy-1-methyl-5-oxo-2,5-dihydro-1H-pyrrole-3-carboxylic acid [bis-(4-fluoro-phenyl)-methyl]-methoxy-amide], for which the inhibition at 20 µM is 10%.
